Experimental data reported in patent US20060167109A1, “Methods of reducing rhinovirus contagion and related compositions” (priority 2002, published 2006).
“And” between values parts separate entries of the source, which are not always exact repeats. Equal values may be shown once. Read-outs that look alike come from different tables or passages of the source.

What was measured:
[1] = tested on: dengue virus type 2, strain New Guinea (DEN-2); experiment: Virus cytopathic effect assay for other viruses; assay type: cell-based; settings: Vero
Description: (§1) The sensitivity of non-picornaviruses to pleconaril was determined in virus cytopathic effect assays similar to the HRV assay for the following viruses: respiratory syncytial virus, strain Long (RSV-A) and herpes simplex virus type II, strain Curtis (HSV-2) on HEp2 cells; influenza virus, strain WSN (FLUA) on MDBK cells; dengue virus type 2, strain New Guinea (DEN-2), and measles virus, strain Edmonston (MeV) on Vero cells; human adenovirus, type 5 (HAdV-5) on HeLa cells (at 33° C.); human coronavirus, strain 229E (Corona) on MRC-5 cells (at 33° C.); and mumps virus, strain Enders (Mumps), reovirus type 1, strain Lang (REOV-1), and parainfluenza virus type 3, strain C243 (HPIV-3) on LLC-MK2d cells. All specificity assays were performed at 37° C. and 5% CO2 except where noted above.

[2] = tested on: measles virus, strain Edmonston (MeV); experiment: Virus cytopathic effect assay for other viruses; assay type: cell-based; settings: Measles morbillivirus, Vero
Description: as §1

[3] = tested on: influenza virus, strain WSN (FLUA); experiment: Virus cytopathic effect assay for other viruses; assay type: cell-based; settings: unidentified influenza virus, MDBK
Description: as §1

[4] = tested on: respiratory syncytial virus, strain Long (RSV-A); experiment: Virus cytopathic effect assay for other viruses; assay type: cell-based; settings: human respiratory syncytial virus, HEp-2
Description: as §1

[5] = tested on: herpes simplex virus type II, strain Curtis (HSV-2); experiment: Virus cytopathic effect assay for other viruses; assay type: cell-based; settings: Human alphaherpesvirus 2, HEp-2
Description: as §1

[6] = tested on: reovirus type 1, strain Lang (REOV-1); experiment: Virus cytopathic effect assay for other viruses; assay type: cell-based; settings: Mammalian orthoreovirus 1
Description: as §1

[7] = tested on: mumps virus, strain Enders (Mumps); experiment: Virus cytopathic effect assay for other viruses; assay type: cell-based; settings: Mumps orthorubulavirus
Description: as §1

[8] = tested on: human coronavirus, strain 229E (Corona); experiment: Virus cytopathic effect assay for other viruses; assay type: cell-based; settings: Human coronavirus 229E, MRC5; Corona on MRC-5 cells at 33° C.
Description: as §1

[9] = tested on: human adenovirus, type 5 (HAdV-5); experiment: Virus cytopathic effect assay for other viruses; assay type: cell-based; settings: Human mastadenovirus C, HeLa
Description: as §1

[10] = tested on: parainfluenza virus type 3, strain C243 (HPIV-3); experiment: Virus cytopathic effect assay for other viruses; assay type: cell-based; settings: Human respirovirus 3
Description: as §1

HRV-50 = experiment: Attachment inhibition, 35S-radiolabeled virus; assay type: cell-based, human rhinovirus; settings: HRV-50, ICAM-1 receptor, FIG. 5
Description: (§2) The ability of pleconaril to affect the attachment to cells of several HRV serotypes was examined. ^35S-radiolabeled virus was incubated with susceptible cells for 1 hour in the presence of various concentrations of pleconaril. Cell-associated virus was quantified by direct scintillation counting of cell lysates after removal of unbound virus.
(§3) ^35S-radiolabeled virus was preincubated with various concentrations of pleconaril or 0.5% DMSO alone for 1 hour at room temperature. Cells in 6 well plates were inoculated with 20,000 cpm of ^35S-radiolabeled virus/well in 0.5 mL of M199 medium with 5% FBS. Attachment was allowed to proceed for 1 hour at 33° C., at which time the inoculum was removed and the cells washed with 2 mL of medium. The cells were then lysed by a 15 minute incubation on ice in the presence of 250 μL/well of a solution containing detergent 1% Nonident P40 (NP40) and 20 mM chelator, ethylene diamine tetraacetic acid (EDTA) in water. Cell-associated radioactivity was quantified by liquid scintillation spectroscopy in a Wallac Model 1409 Liquid Scintillation Counter (Wallac Oy, Turku, Finland).

HRV-89 = experiment: Attachment inhibition, 35S-radiolabeled virus; assay type: cell-based, human rhinovirus; settings: HRV-89, ICAM-1 receptor, FIG. 5
Description: as §2, §3

HRV-14 = experiment: Attachment inhibition, 35S-radiolabeled virus; assay type: cell-based, human rhinovirus; settings: HRV-14, ICAM-1 receptor, FIG. 5
Description: as §2, §3

HRV-2 = experiment: Attachment inhibition, 35S-radiolabeled virus; assay type: cell-based, human rhinovirus; settings: HRV-2, LDL receptor, HeLa cells
Description: as §2, §3

HRV-1A = experiment: Attachment inhibition, 35S-radiolabeled virus; assay type: cell-based, human rhinovirus; settings: LDL receptor, HeLa cells
Description: as §2, §3

HRV-3 = experiment: Attachment inhibition, 35S-radiolabeled virus; assay type: cell-based, human rhinovirus; settings: HRV-3, ICAM-1 receptor, FIG. 5
Description: as §2, §3

HRV3 = experiment: Low pH inactivation; assay type: cell-based, human rhinovirus; settings: 2 μM, pH 5.2, FIG. 4
Description: As a second indication of the direct interaction of the drug with the virion capsid, an experiment was conducted to examine the ability of pleconaril to protect HRV3 from low pH inactivation.
Approximately […] plaque forming units (PFU) of virus were incubated with 0.5% DMSO or 2 μM pleconaril (in 0.5% DMSO) overnight at 4° C. For HRV3, samples were diluted into sodium acetate buffer (1 M, pH 5.2 or pH 7.0) for 30 minutes on ice followed by neutralization with 2 volumes of 1M Tris-HCl, pH 8.0. All samples were extracted twice with chloroform prior to titration in the viral cytopathic effect assay on HeLa cells (see below).

[11] = tested on: 10 other human viral pathogens; experiment: Antiviral specificity, viral cytopathic effect assays; assay type: cell-based
log P = assay type: physicochemical
[12] = Pleconaril concentration in nasal mucus, clinical studies 843-043 and 843-044; settings: diluted samples, individual subjects
Description: Two hundred (200) μl of acetonitrile was added to 200 μl of each nasal mucus standard and sample. The samples and standards were vortex mixed and then centrifuged at 25° C. for 10 minutes at 2500 rpm. 170 μl of supernatant was removed from each standard and sample. Then, 30 μl of water was added. The mixture was vortex mixed and 40 μl was injected for quantitative analysis of pleconaril.
Standards and samples were analyzed via LC/MS/MS. • Mass Spec: Micromass Quattro • LC: Alliance 2790 • Mobile Phase: 85% Acetonitrile/15% 2 mM Ammonium Acetate (0.2% formic acid) • Flow Rate: 0.5 ml/min • Analytical Column: Luna C18 (2) 5μ, 50×3.00 mm (Phenomenex) • Source: ESI (Electrospray Ionization) • Ion Mode: Positive • MRM transition: 382>82
The Masslyns quantitation package was used to analyze the results. The method used was a linear (1/× weighted) external standard method of calibration.
Studies 843-043 and 843-044 were Phase III clinical trials for the acute treatment of viral respiratory infection (common cold) in which pleconaril was administered for five days (400 mg TID). These samples were selected based on the plasma concentrations measured on Day 3 of 6 (plasma concentrations at or above 1 μg/ml).
Nasal mucus samples were diluted with 2 ml of transport media during processing and prior to quantitative analysis.

[13] = Single dose oral pharmacokinetics in fed healthy young subjects; assay type: in vivo, human; settings: for half-life: po, 400 mg
[14] = human, plasma, fed healthy young subjects (N = 24), single oral dose 400 mg, mean

Question: For `Cc1cc(CCCOc2c(C)cc(-c3noc(C(F)(F)F)n3)cc2C)on1` [pleconaril, 3-[3,5-dimethyl-4-[3-(3-methyl-5-isoxazolyl)propoxy]phenyl]-5-(trifluoromethyl)-1,2,4-oxadiazole], which IC50 [1] is on record?
Answer: > 12.5 µM

Question: And the IC50 [2]?
Answer: > 12.5 µM

Question: What about the IC50 [3] of the same compound?
Answer: > 12.5 µM

Question: And the IC50 [4]?
Answer: > 12.5 µM

Question: What about the IC50 [5] of the same compound?
Answer: > 12.5 µM

Question: And the IC50 [6]?
Answer: > 12.5 µM

Question: What about the IC50 [7] of the same compound?
Answer: > 12.5 µM

Question: What about the IC50 [8] of the same compound?
Answer: > 12.5 µM

Question: And the IC50 [9]?
Answer: > 12.5 µM

Question: And the IC50 [10]?
Answer: > 12.5 µM

Question: And the “attachment of virus to cells” value (HRV-50)?
Answer: inhibited

Question: What about the “attachment of virus to cells” value (HRV-89) of the same compound?
Answer: inhibited

Question: What about the “attachment of virus to cells” value (HRV-14) of the same compound?
Answer: inhibited

Question: And the “attachment of virus to cells” value (HRV-2)?
Answer: able to bind to HeLa cells normally

Question: What about the “attachment of virus to cells” value (HRV-1A) of the same compound?
Answer: able to bind to HeLa cells normally

Question: What about the “attachment of virus to cells” value (HRV-3) of the same compound?
Answer: inhibited

Question: And the “protection from low pH inactivation” value (HRV3)?
Answer: protect HRV3 from low pH-induced degradation

Question: And the “activity against unrelated viruses” value [11]?
Answer: no activity

Question: And the IC50 ([11]; Homo sapiens, all ten viruses)?
Answer: > 12.5 µM

Question: What about the “log P” value (log P) of the same compound?
Answer: high

Question: And the “Pleconaril Concentration (Nasal Mucus)” value ([12]; Study 43, Day 3, 400 mg TID for five days)?
Answer: 26.36 ng/mL and 10.22 ng/mL and 2.46 ng/mL and 1.20 ng/mL

Question: What about the “Pleconaril Concentration (Nasal Mucus)” value ([12]; Study 43, Day 6, 400 mg TID for five days) of the same compound?
Answer: BQL and 2.21 ng/ml and 33.93 ng/ml and 79.38 ng/ml

Question: What about the “Pleconaril Concentration (Nasal Mucus)” value ([12]; Study 44, Day 3, 400 mg TID for five days) of the same compound?
Answer: BQL and 23.88 ng/ml and 2.51 ng/ml and 6.98 ng/ml

Question: And the “Pleconaril Concentration (Nasal Mucus)” value ([12]; Study 44, Day 6, 400 mg TID for five days)?
Answer: 1.77 ng/mL and 2.43 ng/mL

Question: What about the concentration at 6 day ([12]; human, nasal mucus, oral, 400 mg TID, Pleconaril Concentration (Nasal Mucus), Study 44, Day 6, 400 mg TID for five days) of the same compound?
Answer: 0.00168 µg/mL

Question: What about the CL/F ([13]; fed healthy young subjects (N = 24), single oral dose 400 mg, mean) of the same compound?
Answer: 16.8 L/h

Question: What about the alpha half-life ([13]; following oral absorption, alpha disposition phase) of the same compound?
Answer: ~2.8 h

Question: And the half-life ([13]; human, plasma, fed healthy young subjects (N = 24), single oral dose 400 mg, mean, read-out: T1/2 (converted))?
Answer: 186 h

Question: And the half-life ([13]; human, plasma, following oral absorption, alpha disposition phase, read-out: alpha half-life)?
Answer: 2 to 3 h

Question: What about the half-life ([13]; human, plasma, following oral absorption, read-out: terminal half-life (converted)) of the same compound?
Answer: ~180 h

Question: And the AUC(0-inf) [13, 14]?
Answer: 29.2 µg·h/mL

Question: And the Cmax [13, 14]?
Answer: 2.3 µg/mL

Question: What about the Tmax [13, 14] of the same compound?
Answer: 3 h

Question: What about the Vd/F ([13]; human, plasma, fed healthy young subjects (N = 24), single oral dose 400 mg, mean, read-out: Vz/F) of the same compound?
Answer: 4110 L
